In patent US20040043403A1, “Process for determining the biological activity of epidermal growth factor receptor tyrosine kinase inhibitors” (priority 2000, published 2004):

Experiments:
MDA-MB468 = assay: Real time RT-PCR gene expression in MDA-MB468 cells; format: cell-based, human; details: MDA-MB468, 3 μM, 24 h; relative to DMSO-treated NCI-H520 calibrator
Experimental: 20 million tissue culture cells (about 80% confluent) or 200 million WBCs are incubated for 2 or 24 h in culture medium containing 3 μM of an EGFR tyrosine kinase inhibitor or 0.03% DMSO. Total RNA from cell pellet is isolated using the RNeasy kit (Qiagen). mRNA is isolated using the oligotex mRNA purification kit (Qiagen). The quality of the obtained mRNA is tested by real time RT-PCR using beta-Actin primers (PE Applied Biosystems) with an amplicon size of 300 base pairs (bp). The total RNA is used as a reference to calculate the amount of mRNA-enrichment in the oligotex purified samples. The primers and probes are designed from mRNA sequences within the coding region or in the 3′ untranslated region (Table 2). For real time RT-PCR, RNA concentrations between 1 and 50 ng/reaction are used to obtain signals between 15-35 cycles. For each RNA preparation RT-PCR reactions are performed with and without reverse transcriptase to check for genomic DNA contamination. In all RNA samples tested, genomic DNA contamination is less than 1%. To normalize for variability in the initial concentration and quality of the total RNA, Glyceraldehyde-3-phosphate dehydrogenase (GAPDH) is used as an endogenous reference in all quantification experiments. For RT-PCR a one step, two-enzyme system is chosen. The TaqMan PCR Core Reagent Kit (PE #N808-0228) plus the reverse transcriptase MuLV (PE Biosystems # N808-0018) and RNase inhibitor (Roche Diagnostics # 799 025) are mixed as described in the manufacturers protocol. Triplicate measurements are done for target and for reference reactions. […] RT-PCR reactions are done with RNA concentrations of 2.5, 5, 10, 20, 40 and 80 ng per reaction. […] The ΔCT value is determined by subtracting the average reference CT values from the average target CT values of the three measurements. Relative quantification is performed in triplicates, reference and target, using the RT-PCR protocol described above. […] Expression levels for the three genes, calculated relative to NCI-H520, show big differences between the various cell types (Table 5). […]

[1] = tested on: A431, NCI-H596, NCI-H520, MDA-MB-468 and WBCs; assay: UniGEM V array 2 h expression profiles of 4 tumor cell lines and WBCs; format: cell-based, human; details: 3 μM, cut off set at 3, vs DMSO, data not shown
Experimental: 20 million tissue culture cells (about 80% confluent) or 200 million WBCs are incubated for 2 or 24 h in culture medium containing 3 μM of an EGFR tyrosine kinase inhibitor or 0.03% DMSO. Total RNA from cell pellet is isolated using the RNeasy kit (Qiagen). mRNA is isolated using the oligotex mRNA purification kit (Qiagen). The quality of the obtained mRNA is tested by real time RT-PCR using beta-Actin primers (PE Applied Biosystems) with an amplicon size of 300 base pairs (bp). The total RNA is used as a reference to calculate the amount of mRNA-enrichment in the oligotex purified samples.
Probes for the UniGEM hybridization are synthesized by Incyte Genomics (Palo Alto, Calif., USA). For each probe 200 ng mRNA (50 ng/μl) is shipped in dry ice. The results are analyzed using the Expressionist Software Package provided by GeneData.
Expression profiles (UniGEM V arrays) of 4 tumor cell lines with different EGFR expression status (A431, NCI-H596, NCI-H520 and MDA-MB-468) and of WBCs upon exposure of cells to 3 μM of COMPOUND A for 2 or 24 h are analyzed. As control, cells treated with DMSO for the same time period are used. […] The cDNA array hybridization is repeated with the UniGEM 1 array using the same mRNA (Table 3).

[2] = tested on: Epidermal Growth Factor (EGF)-responsive tumors; details: disclosed in WO 97/02266; cited from earlier work

C[C@@H](Nc1ncnc2[nH]c(-c3ccc(O)cc3)cc12)c1ccccc1 [COMPOUND A, (R)-6-(4-hydroxy-phenyl)-4-[(1-phenyl-ethyl)-amino]-7H-pyrrolo[2,3-d]pyrimidine]
Relative Clusterin expression (MDA-MB468): 32.60 n-fold
Relative TRAIL expression (MDA-MB468): 2.89 n-fold
Relative VAC-beta expression (MDA-MB468): 26.60 n-fold
2 h expression profiles, induced and repressed genes [1]: almost no induced genes and only few repressed genes
2 h expression profiles: early growth response protein 1 [1]: repression in two cell lines and WBCs
Anti-proliferative activity against EGF-responsive tumors [2]: exhibits anti-proliferative activity
